Columns and labels:
[1] = system: Bean (BN); assay: Post-emergence herbicide test; assay type: in vivo, Phaseolus vulgaris var. Black Valentine; details: Phaseolus vulgaris, post-emergence, 336 h, two weeks after treatment; for pest or weed control at 4483.4 g/ha: 4 lb/acre
In short: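 Snapbean (Phaseolus vulgaris var. Black Valentine) was tested post-emergence. Four seeds were sown in 3' plastic pots of potting soil at a depth equal to the seed diameter, then sub-irrigated in greenhouse trays. Planting dates were staggered so plants were sprayed once primary leaves had expanded, with the growing point at the primary leaf nodes.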

[2] = system: Corn (CN); assay: Pre-emergence herbicide test; assay type: in vivo; details: Zea mays, 336 h, two weeks after treatment; for pest or weed control at 4483.4 g/ha: 4 lb/acre
Procedure: (§1) All crop and weed species were planted individually in 3' plastic pots containing potting soil. Four seeds each of corn, cotton, and snapbeans were seeded to a depth equal to the diameter of the seed. All other species were surface seeded and sprinkled with screened soil in an amount sufficient to cover the seed. Immediately after planting, all pots were watered by sub-irrigation in greenhouse trays. Pots for the pre-emergence phase were seeded one day before treatment.
(§2) Compounds were tested at rates of application equivalent to 8 lbs. of actual compound per acre in a spray volume of 38 gallons per acre. Spray hood constants required to deliver the above volume are as follows:
(§3) Formulations for spray applications were prepared in 50 ml volumes with the following three components:
(§4) Formulations for the 4 lbs/acre rate were prepared by adjusting the amount of active ingredient accordingly.
(§5) Spray applications were made in a hood containing a removable belt and fixed spray nozzle. For passage through the spray hood, one pot of each specie (pre-emergence phase) was placed on the rear half of the flat. Treatments were removed to the greenhouse after spraying. Watering during the observation period was done only by sub-irrigation.
(§6) Two weeks after treatment, pre- and post-emergence injury or control was visually rated, and the results were as shown in the following tables. Pre-emergence data are provided in TABLE III and post-emergence data are provided in TABLE IV, for compounds having the formula illustrated in TABLE I. Correspondingly, pre-emergence and post-emergence data, respectively, are set forth in TABLES V AND VI, for compounds having the formula illustrated in TABLE II.

[3] = system: Amaranth pigweed (PW); assay: Pre-emergence herbicide test; assay type: in vivo, Amaranthus retroflexus; details: 336 h, two weeks after treatment; for pest or weed control at 4483.4 g/ha: 4 lb/acre
Procedure: as §1, §2, §3, §4, §5, §6

[4] = system: Turnip (TP); assay: Post-emergence herbicide test; assay type: in vivo, Brassica sp.; details: Brassica rapa, post-emergence, 336 h, two weeks after treatment; for pest or weed control at 4483.4 g/ha: 4 lb/acre
In short: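 A greenhouse post-emergence herbicide test on turnip. Seeds were sown on the surface of potting soil in 3' plastic pots, lightly covered with screened soil and watered from below. Planting was timed so seedlings had 1 or 2 true leaves above the cotyledons at spraying, done in a hood with a fixed nozzle. Control or injury was scored by eye after two weeks.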

[5] = system: Crabgrass (CG); assay: Post-emergence herbicide test; assay type: in vivo, Digitaria sanquinalis; details: Digitaria sanguinalis, post-emergence, 336 h, two weeks after treatment; for pest or weed control at 4483.4 g/ha: 4 lb/acre
In short: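 Crabgrass (Digitaria sanquinalis) was surface seeded individually in 3' plastic pots of potting soil, covered with screened soil, and watered by sub-irrigation in greenhouse trays. Planting was staggered so seedlings reached the target stage together. Post-emergence sprays were applied in a hood with a removable belt and fixed nozzle, and control was visually rated two weeks after treatment.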

[6] = system: Barnyard grass (BG); assay: Pre-emergence herbicide test; assay type: in vivo; details: Echinochloa crus-galli, 336 h, two weeks after treatment; for pest or weed control at 4483.4 g/ha: 4 lb/acre
Procedure: Barnyard grass (BG)--Echinochloa crus-galli
as §1, §2, §3, §4, §5, §6

[7] = system: Cotton (CT); assay: Pre-emergence herbicide test; assay type: in vivo, Gossypium hirsutum var. DPL smooth leaf; details: Gossypium hirsutum, 336 h, two weeks after treatment; for pest or weed control at 4483.4 g/ha: 4 lb/acre
Procedure: Cotton (CT)--Gossypium hirsutum var. DPL smooth leaf
as §1, §2, §3, §4, §5, §6

[8] = system: Cotton (CT); assay: Post-emergence herbicide test; assay type: in vivo, Gossypium hirsutum var. DPL smooth leaf; details: Gossypium hirsutum, post-emergence, 336 h, two weeks after treatment; for pest or weed control at 4483.4 g/ha: 4 lb/acre
In short: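 Cotton (Gossypium hirsutum var. DPL smooth leaf) was grown in 3' plastic pots of potting soil, four seeds per pot, planted at a depth equal to the seed diameter and watered by sub-irrigation. At the stage of expanded cotyledons with the first true leaf 1' long, plants were sprayed post-emergence in a hood with a fixed nozzle over a moving belt. Percent control was rated visually two weeks later.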

[9] = system: Johnson grass (JG); assay: Pre-emergence herbicide test; assay type: in vivo, Sorgum helepense; details: Sorghum halepense, 336 h, two weeks after treatment; for pest or weed control at 4483.4 g/ha: 4 lb/acre
Procedure: Johnson grass (JG)--Sorgum helepense
as §1, §2, §3, §4, §5, §6

[10] = system: Crabgrass (CG); assay: Pre-emergence herbicide test; assay type: in vivo, Digitaria sanquinalis; details: Digitaria sanguinalis, pre-emergence, 336 h, two weeks after treatment; for pest or weed control at 4483.4 g/ha: 4 lb/acre
In short: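 Crabgrass (Digitaria sanquinalis) was surface seeded in 3' plastic pots of potting soil, covered with screened soil, and watered by sub-irrigation in greenhouse trays. Pots were seeded one day before spraying in a hood with a moving belt and fixed nozzle. Plants stayed in the greenhouse on sub-irrigation, and pre-emergence control was rated visually two weeks after treatment.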

[11] = system: Turnip (TP); assay: Pre-emergence herbicide test; assay type: in vivo, Brassica sp.; details: Brassica rapa, pre-emergence, 336 h, two weeks after treatment; for pest or weed control at 4483.4 g/ha: 4 lb/acre
In short: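 Turnip (Brassica sp.) seeds were surface sown in 3' plastic pots of potting soil, covered with a thin layer of screened soil, and sub-irrigated in greenhouse trays. Pots were seeded one day ahead of treatment, sprayed pre-emergence under a hood with a fixed nozzle and moving belt, then kept in the greenhouse.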

[12] = system: Bean (BN); assay: Pre-emergence herbicide test; assay type: in vivo, Phaseolus vulgaris var. Black Valentine; details: Phaseolus vulgaris, 336 h, two weeks after treatment
Procedure: Bean (BN)--Phaseolus vulgaris var. Black Valentine
as §1, §2, §3, §4, §5, §6

CCCC(C)c1nnc(NC(=O)NC)s1 (centres unmarked) [Example 83]
pest or weed control at 4483.4 g/ha [1]: 40% | pest or weed control at 4483.4 g/ha [2]: 10% | pest or weed control at 4483.4 g/ha [3]: 80% | pest or weed control at 4483.4 g/ha [4]: 90% | pest or weed control at 4483.4 g/ha [5]: 10% | pest or weed control at 4483.4 g/ha [6]: 50% | pest or weed control at 4483.4 g/ha [7]: 10% | pest or weed control at 4483.4 g/ha [8]: 10% | pest or weed control at 4483.4 g/ha [9]: 60% | pest or weed control at 4483.4 g/ha [10]: 90% | pest or weed control at 4483.4 g/ha [11]: 10%

CCSc1nnc(N(C)C(=O)NC)s1 [Example 89]
pest or weed control at 560.425 g/ha ([1]; 0.5 lb/acre): 90% | pest or weed control at 1120.85 g/ha ([1]; 1 lb/acre): 100% | pest or weed control at 2241.7 g/ha ([1]; 2 lb/acre): 100% | pest or weed control at 4483.4 g/ha [1]: 100% | pest or weed control at 560.425 g/ha ([2]; 0.5 lb/acre): 10% | pest or weed control at 1120.85 g/ha ([2]; 1 lb/acre): 50% | pest or weed control at 2241.7 g/ha ([2]; 2 lb/acre): 40% | pest or weed control at 4483.4 g/ha [2]: 50% | pest or weed control at 560.425 g/ha ([3]; 0.5 lb/acre): 70% | pest or weed control at 1120.85 g/ha ([3]; 1 lb/acre): 100% | pest or weed control at 2241.7 g/ha ([3]; 2 lb/acre): 100% | pest or weed control at 4483.4 g/ha [3]: 100% | pest or weed control at 560.425 g/ha ([4]; 0.5 lb/acre): 100% | pest or weed control at 1120.85 g/ha ([4]; 1 lb/acre): 100% | pest or weed control at 2241.7 g/ha ([4]; 2 lb/acre): 100% | pest or weed control at 4483.4 g/ha [4]: 100% | pest or weed control at 560.425 g/ha ([5]; 0.5 lb/acre): 40% | pest or weed control at 1120.85 g/ha ([5]; 1 lb/acre): 50% | pest or weed control ([5]; 2 lb/acre): 90% | pest or weed control at 4483.4 g/ha [5]: 90% | pest or weed control at 560.425 g/ha ([6]; 0.5 lb/acre): 30% | pest or weed control at 1120.85 g/ha ([6]; 1 lb/acre): 80% | pest or weed control at 2241.7 g/ha ([6]; 2 lb/acre): 80% | pest or weed control at 4483.4 g/ha [6]: 100% | pest or weed control at 560.425 g/ha ([7]; 0.5 lb/acre): 10% | pest or weed control at 1120.85 g/ha ([7]; 1 lb/acre): 10% | pest or weed control at 2241.7 g/ha ([7]; 2 lb/acre): 10% | pest or weed control at 4483.4 g/ha [7]: 50% | pest or weed control at 560.425 g/ha ([8]; 0.5 lb/acre): 90% | pest or weed control at 1120.85 g/ha ([8]; 1 lb/acre): 100% | pest or weed control at 2241.7 g/ha ([8]; 2 lb/acre): 100% | pest or weed control at 4483.4 g/ha [8]: 100% | pest or weed control at 560.425 g/ha ([9]; 0.5 lb/acre): 40% | pest or weed control at 1120.85 g/ha ([9]; 1 lb/acre): 50% | pest or weed control at 2241.7 g/ha ([9]; 2 lb/acre): 80% | pest or weed control at 4483.4 g/ha [9]: 70% | pest or weed control at 560.425 g/ha ([10]; 0.5 lb/acre): 50% | pest or weed control at 1120.85 g/ha ([10]; 1 lb/acre): 90% | pest or weed control at 2241.7 g/ha ([10]; 2 lb/acre): 90% | pest or weed control at 4483.4 g/ha [10]: 100% | pest or weed control at 560.425 g/ha ([11]; 0.5 lb/acre): 30% | pest or weed control at 1120.85 g/ha ([11]; 1 lb/acre): 70% | pest or weed control at 2241.7 g/ha ([11]; 2 lb/acre): 80% | pest or weed control at 4483.4 g/ha [11]: 90% | pest or weed control at 560.425 g/ha ([12]; 0.5 lb/acre): 10% | pest or weed control at 1120.85 g/ha ([12]; 1 lb/acre): 10% | pest or weed control at 2241.7 g/ha ([12]; 2 lb/acre): 10% | pest or weed control at 4483.4 g/ha ([12]; 4 lb/acre): 10%

From US4175081A, “5-Substituted thiadiazole ureas” (priority 1977, dated 1979)
